Experimental data as given in paper PMC11284790, “Targeting Myeloperoxidase Ameliorates Gouty Arthritis: A Virtual Screening Success Story” (Journal of Medicinal Chemistry, 2024).
Read-outs that look alike come from different tables or passages of the source.

Legend:
human neutrophils = test: MSU-induced NETosis assay (sytox green fluorescence microscopy); assay type: cell-based; details: 20 μM compound, MSU 250 μg/mL, 90 min
Method: NETosis assay was conducted on human neutrophils adhered to lysine-coated glass coverslips as previously reported.[80] After neutrophils’ adhesion, the compounds were diluted in RPMI medium (free of phenol red and fetal bovine serum) at a final concentration of 20 μM (0.15% DMSO) and added to the cells for 15 min at 37 °C in a 5% CO2 atmosphere. Then, MSU crystals (250 μg/mL), known to induce NETosis, were added. After 90 min incubation, the medium was carefully removed, paraformaldehyde was added (500 μL at 4%), and incubated at 4 °C overnight. In the following day, paraformaldehyde was removed, and cells were washed threefold with tris-HCl buffer (20 mM, pH 7.4) and kept into the same buffer at 4 °C. Tris-HCl buffer was carefully removed, and DNA was stained by adding 500 μL SYTOX Green (500 nM diluted in tris-HCl buffer). The system was kept for 30 min at room temperature, protected from light. After staining, the coverslips were mounted over the glass slides using ProLong Diamond Antifade Mountant fixation medium. Fluorescence images were acquired in an Axiovert 200 (Zeiss) fluorescence microscope with a 20x/0.4 objective and Zeiss Filter Set 09, λex = 450–490 nm, λem = above 515 nm. Images were taken by an Axiocam HR R3 camera device.

dHL-60 cells = test: Cellular production of HOCl, PMA-activated dHL-60 cells; assay type: cell-based, human; details: 20 μM compound, 100 nM PMA, 1 h
Method: Human promyelocytic leukemic cells (HL-60) (BCRJ, RJ, Brazil) were cultivated in RPMI with fetal bovine serum (10%), penicillin (62 μg/mL), and streptomycin (100 μg/mL) at 37 °C in 5% CO2 atmosphere. HL-60 cells were differentiated to neutrophil-like (dHL-60) by DMSO (1.25%) during 4 days.[25]
(§1) Measurement of HOCl production by 1 × 10^6 dHL-60 or neutrophils was carried out in PBS (10 mM Na2HPO4, 2 mM KH2PO4, 0.5 mM MgCl2, 1 mM CaCl2, 140 mM NaCl, 5.5 mM dextrose, 100 μM diethylenetriaminepentaacetic acid, 5 mM taurine) in the presence of the compounds (20 μM in 0.3% DMSO) or 0.3% DMSO (control). Cells were activated with phorbol myristate acetate (100 nM) at 37 °C for 1 h. After incubation, cells were centrifuged at 1400 rpm for 10 min, and the supernatant was diluted threefold. Finally, 240 μL of this supernatant was added to 60 μL acetate buffer (400 mM, pH 5.4) containing NaI (100 μM) and TMB (2 mM in DMFO 10%). Taurine chloramine was quantified by TMB oxidation at 655 nm.[33] Inhibition of HOCl production was calculated as the percentage of the control (vehicle).

Human leukocyte MPO [1] = target: T1, Human leukocyte MPO (Homo sapiens, UniProt P05164); test: MPO chlorinating activity assay (taurine chloramine/TMB); assay type: biochemical; design: Human leukocyte MPO (EC 1.7.1.11) was purchased from Planta Natural Products; purchased Planta Natural Products (Vienna, Austria); host or cells: human leukocytes
Method: Chlorinating activity was carried out in phosphate buffer (20 mM, pH 7.4). Compounds (20 μM) were dissolved in 0.03% DMSO, MPO (10 nM), diethylenetriaminepentaacetic acid (100 μM), cetyltrimethylammonium chloride (0.03%), NaCl (140 mM), and taurine (5 mM).[31] This mixture was incubated at 37 °C for 15 min before adding 40 μM hydrogen peroxide. The reaction ran for 8 min and was then stopped by catalase (20 μg/mL). Oxidation of TMB (2 mM) (3,3,5,5-tetramethylbenzidine) by taurine chloroamine catalyzed by iodide (100 μM) was quantified at 650 nm.[33] Results were expressed as a percentage of the control (vehicle). IC50 was calculated by nonlinear regression using the Hill equation present in GraphPad Prism 5 software.

Human leukocyte MPO [2] = target: T1, Human leukocyte MPO; test: MPO peroxidatic activity assay (AmplexRed oxidation); assay type: biochemical; design: Human leukocyte MPO (EC 1.7.1.11) was purchased from Planta Natural Products; purchased Planta Natural Products (Vienna, Austria); host or cells: human leukocytes
Method: MPO peroxidase activity was kinetically monitored using the artificial peroxidase substrate AmplexRed, which is oxidized to resorufin and can be detected by fluorescence.[34] Reactions were carried out in phosphate buffer (50 mM, pH 7.4), MPO (100 pM), cetyltrimethylammonium chloride (0.03%), diethylenetriaminepentaacetic acid (100 μM), AmplexRed (30 μM), and compounds (20 μM in 0.3% DMSO). The reaction was started by adding 2 μM hydrogen peroxide. The reaction product was assessed by fluorescence at λex = 530 and λem = 580 nm. The initial velocity was calculated by the slope of the linear regression in the first minutes of reaction. Inhibition is represented as a percentage of the control (vehicle).

Human leukocyte MPO [3] = target: T1, Human leukocyte MPO; details: read-out: previously reported IC50 for MPO; cited from earlier work
[4] = test system: human peripheral blood neutrophils; test: Cellular production of HOCl, PMA-activated peripheral blood neutrophils; assay type: cell-based; details: 20 μM compound, 100 nM PMA, 1 h
Method: Human neutrophils were obtained from healthy individuals as previously described.[24] The experiments were approved by the local ethics committee (CEPSH-ICB 1435/18).
as §1

IL-1β = test: Paw tissue IL-1β level after MSU (ELISA); assay type: in vivo, male C57BL/6 mice; details: intraperitoneal pretreatment (RL6 30 mg/kg), tissue collected at 6 h
Method: (§2) The remaining part of the homogenate was treated with a solution of protease/phosphatase inhibitors (1 mM phenylmethylsulfonyl fluoride, 10 μg/mL leupeptin, and 10 μg/mL trypsin inhibitor) and centrifuged at 10,000g (10 min at 4 °C). The obtained supernatants were subjected to 1:2 dilution in PBS and subsequently used for the assessment of IL-1β and IL-6 using murine enzyme-linked immunosorbent assay kits, specifically a sandwich ELISA technique, following manufacturer’s instructions (BioLegend, CA, USA). The protein content within the samples was determined by using the Bradford method (1976). The results were quantified and expressed in pg/mg of protein (Bio-Rad, Hercules, CA, USA).[76]

MSU-induced paw edema [5] = test: MSU-induced paw edema, oral treatment; assay type: in vivo, male C57BL/6 mice
Method: (§3) Paw volume (mL) was measured at various time points, including before injection (baseline, B), […] 1, 2, 3, 4, 5, and 6 h following MSU injection using a plethysmometer (Ugo Basile, Comerio, Italy) (Figure 7). For this, the injected hind paw was immersed into the dipping solution (6 mM NaCl diluted in distilled water and added with 2 mL/L of a wetting compound provided by the manufacturer) until the ankle. The extent of edema was quantified as a change in paw volume (Δ mL) by subtracting the basal paw volume from the volume of the paw measured at each time point. To evaluate the antiedematogenic effect of orally administered MPO inhibitors (p.o.), the animals were fasted for 1 h and then treated with equimolar doses of the following substances: vehicle (VEH: 5% DMSO; 0.5% tween 80 in PBS), mefenamic acid (30 mg/kg), RL 6 (33 mg/kg), RL 7 (54 mg/kg), RL 21 (30 mg/kg), or ZINC9089086 (34 mg/kg). After 1 h, the anesthetized mice (2% isoflurane, v/v in O2) received either the vehicle (PBS, 30 μL, i.pl.) or 1.5 mg/30 μL MSU (i.pl.). The paw volume was evaluated at the same time points as previously described. The percentage of edema inhibition by the compounds was calculated discounting the paw volume of mice that received oral or intraperitoneal vehicle and PBS intraplantar (VEH + VEH).

MSU-induced paw edema [6] = test: MSU-induced paw edema, intraperitoneal treatment; assay type: in vivo; details: for reduction of paw edema (time-dependent AUC) vs VEH + MSU: 30 mg/kg i.p.; for effect on paw edema over time: i.p. 30 min before MSU, mefenamic acid 30 mg/kg, RL6 3, 10, 30, RL7 0.3, 3, 30, ZINC9089086 3, 10, 30 mg/kg, 6 h
Method: MSU-induced edema was performed as previously described.[22] The compounds were prepared by dilution in a solution containing 0.5% Tween 80 and 5% DMSO and then resuspended in PBS prior to administration. The animals were treated intraperitoneally (i.p.) with the following substances: vehicle (VEH: 5% DMSO; 0.5% Tween 80 in PBS), mefenamic acid (a nonsteroidal anti-inflammatory drug at a dosage of 30 mg/kg), RL6 (at doses of 3, 10, and 30 mg/kg), RL7 (at doses of 0.3, 3, and 30 mg/kg), or ZINC9089086 (at doses of 3, 10, and 30 mg/kg).[31] After 30 min, the mice were anesthetized using inhaled isoflurane (2% v/v in O2). A hypodermic syringe with a 31-gauge needle (BD, Franklin Lakes, NJ, USA) was used to administer the vehicle (VEH: PBS, 30 μL) or MSU (1.5 mg/30 μL) via the intraplantar route (i.pl.), into the right hind paw (Figure 9).
as §3

IL-6 = test: Paw tissue IL-6 level after MSU (ELISA); assay type: in vivo, male C57BL/6 mice; details: intraperitoneal pretreatment (RL6 30 mg/kg), tissue collected at 6 h
Method: as §2

[7] = test system: total peroxidase activity; test: Paw tissue total peroxidase activity after MSU; assay type: in vivo, male C57BL/6 mice; details: intraperitoneal pretreatment (RL6 30 mg/kg), tissue collected at 6 h
Method: After the assessment of paw edema was completed, the mice were immediately anesthetized by inhalation of 2% isoflurane mixture in oxygen (O2). Subsequently, the surface of the hind paws was collected for the measurement of total peroxidase activity, IL-6, and IL-1β. These tissue samples were then frozen using dry ice and stored at −80 °C until further analysis. The frozen tissues were later pulverized into a fine powder using liquid nitrogen and homogenized in a phosphate buffer (100 mM, pH 7.4). For the analysis of total peroxidase activity, a portion of this homogenate was mixed with hexadecyltrimethylammonium (1% HTAB, pH 6.0), vigorously vortexed, and sonicated. The resulting mixture was then centrifuged at 10,000g for 10 min, at 4 °C, and heated at 60 °C for 2 h. The sample of each supernatant was incubated with a solution containing 50 mM phosphate buffer, 0.164 mg/mL of o-dianisidine dihydrochloride, and H2O2 (0.0005%, pH 6.0). […] Each unit represents the capacity to degrade 1 μmol of H2O2 per minute.[81]

T1 sequence (P05164 279-745 limits assumed): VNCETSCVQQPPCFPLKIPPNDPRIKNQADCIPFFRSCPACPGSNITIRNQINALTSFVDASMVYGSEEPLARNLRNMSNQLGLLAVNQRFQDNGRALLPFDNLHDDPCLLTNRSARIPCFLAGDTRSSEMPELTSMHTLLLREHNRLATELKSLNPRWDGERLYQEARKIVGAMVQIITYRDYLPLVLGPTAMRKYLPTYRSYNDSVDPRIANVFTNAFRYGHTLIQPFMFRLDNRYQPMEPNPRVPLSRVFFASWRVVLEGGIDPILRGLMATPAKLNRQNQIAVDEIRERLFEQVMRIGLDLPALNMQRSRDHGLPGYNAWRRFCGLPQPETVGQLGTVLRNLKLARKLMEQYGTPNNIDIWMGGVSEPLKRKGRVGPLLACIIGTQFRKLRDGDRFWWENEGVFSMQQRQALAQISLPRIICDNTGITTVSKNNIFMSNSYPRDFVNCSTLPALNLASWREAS
T1 sequence (P05164 165-278 limits assumed): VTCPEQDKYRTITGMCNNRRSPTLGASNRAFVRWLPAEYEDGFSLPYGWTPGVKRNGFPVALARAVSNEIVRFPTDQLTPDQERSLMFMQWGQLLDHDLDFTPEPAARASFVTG

| SMILES | inhibition of MSU-induced NETosis (human neutrophils) | inhibition of HOCl production in dHL-60 cells (dHL-60 cells) | IC50 (Human leukocyte MPO [1]; 10 nM MPO, 140 mM NaCl, pH 7.4) [µM] | inhibition at 20 µM (Human leukocyte MPO [1]; 20 μM compound, 10 nM MPO, 140 mM NaCl, 5 mM taurine, 40 μM H2O2, pH 7.4, read-out: % Inhibition (at 20 μM) Chlorinating) [%] | inhibition at 20 µM (Human leukocyte MPO [1]; supplementary csv copy of Table 1, read-out: % Inhibition (Chlorinating)) [%] | inhibition at 20 µM (Human leukocyte MPO [2]; 20 μM compound, 100 pM MPO, 30 μM AmplexRed, 2 μM H2O2, pH 7.4, read-out: % Inhibition (at 20 μM) Peroxidatic) [%] | inhibition at 20 µM (Human leukocyte MPO [2]; supplementary csv copy of Table 1, read-out: % Inhibition (Peroxidatic)) [%] | IC50 (Human leukocyte MPO [3]) [µM] | inhibition of HOCl production in peripheral blood neutrophils [4] | decrease in IL-1β levels in hind paw tissue (IL-1β) | inhibition of edema vs VEH + MSU (MSU-induced paw edema [5]; 34 mg/kg po) | reduction of paw edema (time-dependent AUC) vs VEH + MSU (MSU-induced paw edema [6]) [%] | effect on paw edema over time (MSU-induced paw edema [6]) | effect on IL-6 levels in hind paw tissue (IL-6) | reduction in total peroxidase activity in hind paw tissue [7] | inhibition of edema vs VEH + MSU (MSU-induced paw edema [5]; 30 mg/kg, positive control of the oral experiment (Figure 8 legend: i.p.)) [%] |
| --- | --- | --- | --- | --- | --- | --- | --- | --- | --- | --- | --- | --- | --- | --- | --- | --- |
| CCCc1cc(=O)[nH]c(=S)[nH]1 [PTU, propylthiouracil, reference compound] | strongly inhibited | most effective | 5.25 | 92.3 ± 11.6 | 92.3 ± 11.6 | 94.1 ± 26.4 | 94.1 ± 26.4 | 3.38 | most effective |  |  |  |  |  |  |  |
| CCc1c(O)[nH]c2nc3ccccc3n2c1=O [ZINC9089086] |  |  |  |  |  |  |  |  |  | unable to decrease | no significant inhibition | 93.4 | inhibited paw edema at all of the tested doses | unable to decrease | unable to decrease |  |
| Cc1cccc(Nc2ccccc2C(=O)O)c1C [mefenamic acid, reference compound] |  |  |  |  |  |  |  |  |  | unable to decrease |  | 91.1 | prevented paw edema for up to 4 h | unable to decrease | unable to decrease | 77.3 |
